Measured values from patent publication US10780067B2, “Endoxifen for local transdermal therapy to the breast” (Northwestern University, priority 2016, dated 2020).
Values belong to the compound of their own block, whether it stands above or below them.

Columns and labels:
MCF-7 xenograft = conditions: dose of 2-8 mg/kg; cited from earlier work
[1] = alcoholic solution of ENX 0.2 mg/mL with 0.5% oleic acid; cited from earlier work
ERα = biological target: T1, ERα (Homo sapiens, UniProt P03372); conditions: cited from earlier work
T1 sequence (P03372 1-595): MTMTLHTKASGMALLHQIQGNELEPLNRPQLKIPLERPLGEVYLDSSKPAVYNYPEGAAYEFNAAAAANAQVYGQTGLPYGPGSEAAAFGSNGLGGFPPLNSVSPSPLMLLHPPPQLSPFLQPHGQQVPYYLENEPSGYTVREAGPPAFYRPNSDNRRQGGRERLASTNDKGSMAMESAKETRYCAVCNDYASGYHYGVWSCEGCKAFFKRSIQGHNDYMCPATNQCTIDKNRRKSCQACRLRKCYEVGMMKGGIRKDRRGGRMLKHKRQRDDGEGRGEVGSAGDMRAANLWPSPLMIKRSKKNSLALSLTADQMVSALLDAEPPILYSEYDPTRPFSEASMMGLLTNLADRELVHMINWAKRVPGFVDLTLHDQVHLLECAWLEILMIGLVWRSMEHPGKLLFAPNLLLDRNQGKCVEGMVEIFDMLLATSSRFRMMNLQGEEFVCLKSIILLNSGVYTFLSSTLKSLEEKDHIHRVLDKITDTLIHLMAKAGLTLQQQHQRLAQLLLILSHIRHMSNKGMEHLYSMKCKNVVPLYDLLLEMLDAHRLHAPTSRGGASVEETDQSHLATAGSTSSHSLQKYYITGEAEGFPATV

ERβ = ERβ (Homo sapiens, UniProt Q92731); conditions: cited from earlier work
MCF7 xenograft [2] = conditions: MCF7 xenograft bearing mice, cited from earlier work
MCF7 xenograft [3] = conditions: simulation using human PK; cited from earlier work
[4] = oral dose of 160 mg daily; cited from earlier work
[5] = Plasma, breast adipose tissue and NAF concentrations of tamoxifen and its metabolites (LC-MS/MS), presurgical trial; assay type: in vivo, human; conditions: in vivo
From the text: All participants provided informed consent. Baseline assessments included a history and physical, explanation of gel application, completion of the Breast Cancer Prevention Trial Eight Symptom Scale (BESS) questionnaire, collection of a venous blood sample, and collection of nipple aspirate fluid (NAF) from NAF yielders. […] Treatment began within 5 days post-randomization and ended on the day prior to surgical resection. Participants were instructed to apply the gel to the entire skin envelope of each breast each morning, after a shower. Duration of therapy was 6-10 weeks. Compliance was assessed through participant diaries, counts of returned pills and of returned gel canisters. Participants who took at least 80% of the prescribed dose were considered compliant.
Assessments similar to those performed at baseline were repeated on the day prior to, or on the morning of surgery. During surgery, breast adipose tissue from the surgical sample was snap frozen and stored at −80° C. for measurement of tamoxifen and metabolites. The samples were obtained from a location adjacent to the DCIS lesion to provide uniformity between participants undergoing breast conservation and mastectomy. The paraffin block of the core and excision samples were acquired by the recruiting institution and 10 sections from each specimen were submitted to the NU Pathology Core Facility. The sections were cut in batches (with pre- and post-treatment samples in the same batch), shipped cold, and processed for immunohistochemistry within four weeks.
(Z)-tamoxifen, (Z)-NDT, (E) and (Z)-4-OHT, and (Z)-endoxifen were measured by liquid chromatography-tandem mass spectrometry with a turbo ion spray interface operating in positive mode (API 3000; AB SCIEX, Foster City, Calif.). […] For analysis of NAF, samples were collected in a capillary tube and diluted with 200 μL of phosphate buffered saline; 100 μL of the diluted NAF sample was used for analysis. Breast adipose tissue samples, 25 mg, were minced and treated with 125 μL of […] and extracted as described above.
Retention times for (Z)-tamoxifen, (Z)-NDT, (Z)-4-OHT, (E)-4-OHT and (Z)-endoxifen were 7.3, 6.8, 5.1, 4.7 and 4.5 min, respectively. […] In three participants, matched samples were not available: breast adipose tissue was not collected in two, and the plasma sample was missing in one.
Since the fraction of E and Z isoforms of 4-OHT was of particular interest, we used an additional validated method to study plasma concentrations of these metabolites in a different laboratory (Eurofins Medinet, Chantilly, Va.): Plasma from blood samples collected in lithium-heparin tubes was frozen at −20° C., shipped in batches on dry ice to them Eurofins Medinet central laboratory; LC-MS/MS was used for the simultaneous determination of (E) 4-OHT and (Z) 4-OHT, with a lower limit of quantitation (LOQ) of 10 pg/mL and upper LOQ of 10,000 pg/mL. Eurofins Medinet developed and validated them method for BHR Pharma, in accordance with the FDA Guidance on Bioanalytical Method Validation.

[6] = female, human, in vivo, 72 h
Experimental: (§1) Nonpregnant women scheduled for mastectomy to prevent or treat breast cancer were recruited through the Lynn Sage Comprehensive Breast Center of Northwestern Medicine. All participants were randomized to patch application to one surgical breast (per participant) or the abdominal skin. The diclofenac patch (Flector® patch, 10 cm×14 cm) is a semi-occlusive, bioadhesive patch containing 129.7 mg of diclofenac acid. After baseline evaluation, the participants were instructed on site of patch application and to replace patch every 12 h over 72 h prior to surgery.
(§2) The breast group wore the patch over the upper outer breast, with the lower inner corner of the patch at the level of the nipple (FIG. 3b). The abdominal group wore the patch on the lower abdomen on the side opposite the planned mastectomy (FIG. 3a). Participants were assessed for baseline signs/symptoms and then by telephone the second day of the treatment and on the day of surgery. All adverse events were coded using the NCI Common Terminology Criteria for Adverse Events version 4.0.
(§3) On the day of surgery, the transdermal patch was removed in the operating room prior to anesthesia and 30 mL venous blood was collected with anticoagulant K2EDTA (BD Vacutainer®, BD Hemogard™ product no. 366643). Tissue samples from the mastectomy specimen were obtained from eight predetermined locations of one breast per participant (FIG. 3b), four central/periareolar and four peripheral samples 5 cm away, at 12, 3, 6, and 9 O'clock. Each tissue sample was weighed and snap-frozen in liquid nitrogen and kept in −80° C. until analysis.
(§4) Formalin-fixed, paraffin-embedded (FFPE) samples were taken from locations adjacent to the drug assay samples, for histological evaluation of tissue composition, and were available from all subjects.
(§5) The concentrations of all the drugs used in rats and humans were determined by liquid chromatography-tandem mass spectroscopy (API 3000; AB SCIEX, Foster City, Calif., USA). […] The mobile phase was A: 0.1% formic acid in water (v/v) and B: 0.1% formic acid in acetonitrile (v/v). […] The lowest limits of quantification (LLOQ) were as follow: tamoxifen and N-desmethyl tamoxifen (NDT) (plasma 10 ng/mL; tissue 40 ng/g); 4-OHT and endoxifen (plasma 0.5 ng/mL; tissue 2 ng/g); telapristone and N-desmethyl telapristone (d-telapristone) (plasma 1 ng/mL; tissue 1.5 ng/g); and diclofenac (plasma 0.5 ng/mL; tissue 2 ng/g).
(§6) The medians and IQR's were reported for diclofenac concentrations by breast region and patch groups (Table 9). To compare breast concentrations by site of patch application, we replaced non-detectable values with “zero” and considered the median concentration from eight samples as the representative breast concentration per individual for statistical purposes. The Wilcoxon rank-sum test was used to assess median concentration differences between patch groups, among regions of the breast, and by menopausal status within each treatment group.
(§7) Diclofenac was determined by LC-MS/MS (API 3000; AB SCIEX, Foster City, Calif.).

clinical = conditions: female, human, in vivo
Experimental: as §1, §2, §3, §4, §5, §6, §7

ERβ, sequence (Q92731 whole entry): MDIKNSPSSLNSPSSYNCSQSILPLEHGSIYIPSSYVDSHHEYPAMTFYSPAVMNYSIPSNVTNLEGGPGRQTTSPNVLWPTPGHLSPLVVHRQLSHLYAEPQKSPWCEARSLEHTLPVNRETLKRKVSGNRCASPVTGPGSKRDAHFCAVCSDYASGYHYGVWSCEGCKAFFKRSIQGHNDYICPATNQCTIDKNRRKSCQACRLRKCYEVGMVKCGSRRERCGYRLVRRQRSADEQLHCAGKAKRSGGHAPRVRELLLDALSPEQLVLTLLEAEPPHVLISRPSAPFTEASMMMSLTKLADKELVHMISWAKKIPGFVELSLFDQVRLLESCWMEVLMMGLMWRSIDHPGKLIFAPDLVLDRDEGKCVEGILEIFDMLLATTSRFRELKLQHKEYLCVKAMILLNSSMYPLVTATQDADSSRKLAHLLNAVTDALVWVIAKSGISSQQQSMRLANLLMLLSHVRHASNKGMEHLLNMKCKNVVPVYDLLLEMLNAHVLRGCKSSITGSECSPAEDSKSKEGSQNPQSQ

Compound: CC/C(=C(\c1ccc(O)cc1)c1ccc(OCCNC)cc1)c1ccccc1.O=C(O)CC(O)(CC(=O)O)C(=O)O [ENX citrate]
- efficacy against MCF-7 xenograft model (MCF-7 xenograft): shows efficacy

Compound: CC/C(=C(\c1ccc(O)cc1)c1ccc(OCCNC)cc1)c1ccccc1 [Endoxifen, N-desmethyl-4-hydroxytamoxifen]
- in vitro human skin penetration [1]: penetrates human skin efficiently
- binding affinity for ERα relative to TAM (ERα): 25 fold
- binding affinity for ERβ relative to TAM (ERβ): 56 fold
- Cstasis (plasma ENX showing 100% TGI) (MCF7 xenograft [2]): 53 nM
- KC50 of plasma ENX (MCF7 xenograft [2]; tumor growth inhibition, oral ENX): 14 nM
- TGI at day 21, 0.5 mg/day oral (MCF7 xenograft [3]): 67%
- TGI at day 21, 1 mg/day oral (MCF7 xenograft [3]): 87%
- TGI at day 21, 4 mg/day oral (MCF7 xenograft [3]): 97%
- MTT [4]: not reached

- NAF concentration of NDT, individual participants [5]: undetectable
- NAF concentration of endoxifen [5]: undetectable
- NAF concentration of tamoxifen, individual participants [5]: undetectable
- participants with 4-OHT detectable in breast tissue [5]: 9 of 10
- participants with 4-OHT detectable in plasma [5]: 5
- breast adipose tissue concentrations of (Z) 4-OHT (discussion) ([5]; po): over 5 ng/mg
Compound: 4-hydroxytamoxifen [4-OHT gel]

- diclofenac breast concentration, abdominal patch, All locations [6]: 0.13 (0.00, 0.37) ng/g tissue
- diclofenac breast concentration, abdominal patch, sampling location 6 [6]: 0.04 (0.00, 0.48) ng/g tissue
- diclofenac breast concentration, breast patch, All locations [6]: 0.77 (0.23, 2.97) ng/g tissue
- diclofenac breast concentration, breast patch, sampling location 6 [6]: 0.31 (0.00, 1.23) ng/g tissue
- diclofenac plasma concentration, abdominal patch [6]: 1.06 (0.81, 1.88) ng/mL
- diclofenac plasma concentration, breast patch [6]: 1.02 (0.71, 1.78) ng/mL
- tissue samples with detectable diclofenac, abdominal group [6]: 58%
- tissue samples with detectable diclofenac, breast group [6]: 79%
- concentration at 72 h (clinical; diclofenac breast concentration, abdominal patch, All locations): 0.13 ng/g
- concentration at 72 h (clinical; diclofenac breast concentration, abdominal patch, sampling location 1): 0 ng/g
- concentration at 72 h (clinical; diclofenac breast concentration, abdominal patch, sampling location 2): 0.18 ng/g
- concentration at 72 h (clinical; diclofenac breast concentration, abdominal patch, sampling location 3): 0.2 ng/g
- concentration at 72 h (clinical; diclofenac breast concentration, abdominal patch, sampling location 4): 0.19 ng/g
- concentration at 72 h (clinical; diclofenac breast concentration, abdominal patch, sampling location 5): 0.11 ng/g
- concentration at 72 h (clinical; diclofenac breast concentration, abdominal patch, sampling location 6): 0.04 ng/g
- concentration at 72 h (clinical; diclofenac breast concentration, abdominal patch, sampling location 7): 0.14 ng/g
- concentration at 72 h (clinical; diclofenac breast concentration, abdominal patch, sampling location 8): 0.08 ng/g
- concentration at 72 h (clinical; diclofenac breast concentration, breast patch, All locations): 0.77 ng/g
- concentration at 72 h (clinical; diclofenac breast concentration, breast patch, sampling location 1): 0.63 ng/g
- concentration at 72 h (clinical; diclofenac breast concentration, breast patch, sampling location 2): 0.64 ng/g
- concentration at 72 h (clinical; diclofenac breast concentration, breast patch, sampling location 3): 0.48 ng/g
- concentration at 72 h (clinical; diclofenac breast concentration, breast patch, sampling location 4): 1.64 ng/g
- concentration at 72 h (clinical; diclofenac breast concentration, breast patch, sampling location 5): 1.98 ng/g
- concentration at 72 h (clinical; diclofenac breast concentration, breast patch, sampling location 6): 0.31 ng/g
- concentration at 72 h (clinical; diclofenac breast concentration, breast patch, sampling location 7): 1.12 ng/g
- concentration at 72 h (clinical; diclofenac breast concentration, breast patch, sampling location 8): 0.58 ng/g
- concentration at 72 h (clinical; diclofenac plasma concentration, abdominal patch): 1.06 ng/mL
- concentration at 72 h (clinical; diclofenac plasma concentration, breast patch): 1.02 ng/mL
- concentration at 72 h (clinical; median breast concentration of diclofenac with IQR, fatty samples): 8.71 ng/g
- concentration at 72 h (clinical; median breast concentration of diclofenac with IQR, fibrous samples): 0.19 ng/g
- concentration at 72 h (clinical; median breast concentration of diclofenac with IQR, mixed samples): 0.52 ng/g
- concentration at 72 h (clinical; median diclofenac breast concentration, abdominal group, medium-sized breasts): 0.21 ng/g
- concentration at 72 h (clinical; median diclofenac breast concentration, abdominal group, small breasts): 0.6 ng/g
- concentration at 72 h (clinical; median diclofenac breast concentration, breast group, medium-sized breasts): 1.31 ng/g
- concentration at 72 h (clinical; median diclofenac breast concentration, breast group, small breasts): 1.12 ng/g
- concentration at 72 h (clinical; median diclofenac concentration, central locations (1 through 4), abdominal group): 0.85 ng/g
- concentration at 72 h (clinical; median diclofenac concentration, central locations (1 through 4), breast group): 4.91 ng/g
- concentration at 72 h (clinical; median diclofenac concentration, peripheral locations (5 through 8), abdominal group): 0.75 ng/g
- concentration at 72 h (clinical; median diclofenac concentration, peripheral locations (5 through 8), breast group): 9.92 ng/g
- concentration at 72 h (clinical; range of diclofenac concentrations in tissue samples of three women, abdominal group): 1.2 to 4.8 ng/g
Compound: O=C(O)Cc1ccccc1Nc1c(Cl)cccc1Cl [diclofenac]
